How the values were obtained:
[1] = test system: C57BL/ks diabetic (db/db) mice; assay: Glucose-lowering (plasma glucose) in diabetic db/db mice; type: in vivo; settings: for mean glucose levels declined from the baseline value / mean glucose levels declined from the baseline values / mean glucose levels declined from baseline values: value = size of decline; for Change in Glucose (mg/dL) 3 h: 3 h after initial dose, vehicle −8.0; for Change in Glucose (mg/dL) 3 h / Change in Glucose (mg/dL) 6 h: Table 1; for Change in Glucose (mg/dL) 6 h / Change in Glucose (mg/dL) 6 H: 6 h after initial dose; for Change in Glucose (mg/dL) 6 h: vehicle 64.5; for Change in Glucose (mg/dL) 8 h: 8 h after initial dose, vehicle 79.5; for Change in Glucose (mg/dL) 24 h: 24 h after initial dose, vehicle 18.6; for Change in Glucose (mg/dL) 54 H: 54 h after initial dose; for reduction in plasma glucose relative to vehicle (control) (in words): oral
Description: (§1) Genetically altered obese diabetic mice (designated C57BL/ks diabetic or db/db) were purchased from the Jackson Laboratory (Bar Harbor, Me., USA), and served as experimental animals. Male animals between the ages of 8-9 weeks were employed in the studies described here. Animals were housed (4 mice/cage) under standard laboratory conditions at 22° C. and 50% relative humidity, and were maintained on a diet of Purina rodent chow and water ad libitum. Prior to treatment, blood was collected from the tail vein of each animal. Mice that had plasma glucose levels between 350 and 600 mg/dL were used. Each treatment group consisted of eight mice that were distributed so that the mean glucose levels were equivalent in each group at the start of the study. Db/db mice received, orally by gavage: the experimental compound administered at 62.5, 125, or 250 mg/kg/day (unless otherwise noted), or metformin administered at […] for 1-3 days. Test compounds were delivered in a liquid vehicle containing 0.25% (w/v) carboxymethyl-cellulose, 1% (v/v) Tween […] (polyoxyethylene sorbitan monosterate), and up to 10% (v/v) dimethyl sulfoxide (DMSO) in a volume of 10 ml/kg. Blood was sampled from the tail vein at three hours, six, eight, twenty-four, and thirty hours post-administration (the first administration) of the particular compound in non-fasted conditions. Experiments 3-5 also sampled blood at fifty-four hours post-administration (the first administration) of the particular compound in non-fasted conditions. Blood samples were analyzed for plasma glucose levels. Individual body weights and mean food consumption (each cage) were also measured daily.
The isolated test substances were prepared as described previously (vide supra). Metformin (1,1-dimethylbiguanide), carboxymethyl cellulose and Tween 60 were purchased from Sigma Chemical Co. (St. Louis, Mo., USA; catalog #'s D-5035, C-4888, and p-1629, respectively). Plasma glucose levels were determined colorimetrically using glucose oxidase (Sigma Chemical Co.; Sigma catalog #315). Significant differences between groups (comparing compound-treated to vehicle-treated) were evaluated using analysis of variance and Fisher's post-hoc test.
Vehicle, metformin (250 mg/kg) or enriched extract (1000 mg/kg) were given to db/db mice at 0(initial), 8, 24, 32, 48, 56, 72, 80, and 96 hours post initial dose.
Plasma glucose levels were measured at baseline, 3 (day 1), 51 hours (Day 3), and 99 hours (Day 5).

[2] = Body weights and food consumption in diabetic db/db mice; type: in vivo; settings: for Food Intake (g/mouse) 0-24 h: vehicle 6.8; for Body weight (g/mouse) (mean) 24 hr: vehicle 37.8 ± 0.8
Description: as §1

[3] = 250 mg/kg oral, dosed at 0, 8 and 24 h
[4] = 250 mg/kg oral, dosed at 0, 8 and 24 h, Table 2
[5] = 250 mg/kg, vehicle 38.0 ± 0.8, Table 3
[6] = 125 mg/kg q.d. oral at 0, 24, 48 h, vehicle 20.0, Table 10
[7] = 125 mg/kg q.d. oral at 0, 24, 48 h, 30 h after initial dose, vehicle 0.1, Table 10
[8] = 125 mg/kg q.d. oral at 0, 24, 48 h, vehicle −20.2, Table 10
[9] = Table 10, 125 mg/kg, fifty-four hours after initial dosing
[10] = Table 10, 125 mg/kg, six hours after initial dosing
[11] = Table 10, 125 mg/kg, thirty hours after initial dosing
[12] = dose level of 125 mg/kg, Tables 8 and 10
[13] = 125 mg/kg, vehicle 6.1, Table 11
[14] = 125 mg/kg, vehicle 39.4 ± 0.4, Table 11
[15] = 125 mg/kg, vehicle 40.1 ± 0.4, Table 11

Molecule: 3-hydroxy-4-(3-methyl-2-butenyl)-5-methoxystilbene-2-carboxylic acid [Compound C]
- mean glucose levels declined from the baseline value ([1]; Tables 4 and 6, 125 mg/kg, fifty-four hours after initial dosing): 60.4 mg/dL
- mean glucose levels declined from the baseline values ([1]; Tables 4 and 6, 250 mg/kg, fifty-four hours after initial dosing): 122.0 mg/dL

Molecule: COc1cc(O)cc(/C=C/c2ccccc2)c1 [Compound B, 3-hydroxy-5-methoxystilbene]
- Change in Glucose (mg/dL) 3 h [1, 3]: -35.3 mg/dL
- Change in Glucose (mg/dL) 6 h [1, 3]: +29.3 mg/dL
- Change in Glucose (mg/dL) 8 h [1, 4]: +52.2 mg/dL
- Change in Glucose (mg/dL) 24 h [1, 4]: -50.6 mg/dL
- Change in Glucose (mg/dL) 30 h ([1]; 250 mg/kg oral, dosed at 0, 8 and 24 h, 30 h after initial dose, Table 2): +36.5 mg/dL
- Food Intake (g/mouse) 0-24 h ([2]; 250 mg/kg, Table 3): 5.9 g/mouse
- Body weight (g/mouse) (mean) 0 h [2, 5]: 37.8 ± 0.4 g/mouse
- Body weight (g/mouse) (mean) 24 hr ([2]; 250 mg/kg, Table 3): 37.8 ± 0.4 g/mouse

Molecule: COc1cc(/C=C/c2ccccc2)c(C(=O)O)c(O)c1CC=C(C)C [Compound C, 3-hydroxy-4-(3-methyl-2-butenyl)-5-methoxystilbene-2-carboxylic acid]
- Change in Glucose (mg/dL) 6 H ([1]; 62.5 mg/kg q.d. oral at 0, 24, 48 h, vehicle 35.9, Tables 4 and 6 (dose of row)): -18.6 mg/dL
- Change in Glucose (mg/dL) 30 H ([1]; 62.5 mg/kg q.d. oral at 0, 24, 48 h, 30 h after initial dose, vehicle 79.6, Tables 4 and 6): -40.7 mg/dL
- Change in Glucose (mg/dL) 54 H ([1]; 62.5 mg/kg q.d. oral at 0, 24, 48 h, vehicle 60.3, Tables 4 and 6): 65.4 mg/dL
- Change in Glucose (mg/dL) 6 H ([1]; 125 mg/kg q.d. oral at 0, 24, 48 h, vehicle 35.9, Tables 4 and 6 (dose of row)): -34.3 mg/dL
- Change in Glucose (mg/dL) 30 H ([1]; 125 mg/kg q.d. oral at 0, 24, 48 h, 30 h after initial dose, vehicle 79.6, Tables 4 and 6): -69.7 mg/dL
- Change in Glucose (mg/dL) 54 H ([1]; 125 mg/kg q.d. oral at 0, 24, 48 h, vehicle 60.3, Tables 4 and 6): -60.4 mg/dL
- Change in Glucose (mg/dL) 3 h [1, 3]: -10.4 mg/dL
- Change in Glucose (mg/dL) 6 h [1, 3]: -8.4 mg/dL
- Change in Glucose (mg/dL) 8 h [1, 4]: +4.5 mg/dL
- Change in Glucose (mg/dL) 24 h [1, 4]: -122.8 mg/dL
- Change in Glucose (mg/dL) 6 H ([1]; 250 mg/kg q.d. oral at 0, 24, 48 h, vehicle 35.9, Tables 4 and 6): -120.8 mg/dL
- Change in Glucose (mg/dL) 30 H ([1]; 250 mg/kg q.d. oral at 0, 24, 48 h, 30 h after initial dose, vehicle 79.6, Tables 4 and 6): -221.4 mg/dL
- Change in Glucose (mg/dL) 54 H ([1]; 250 mg/kg q.d. oral at 0, 24, 48 h, vehicle 60.3, Tables 4 and 6): -122.0 mg/dL
- mean glucose levels declined from the baseline value ([1]; Table 8, 125 mg/kg, thirty hours after initial dosing): 12.2 mg/dL
- mean glucose levels rose from the baseline values ([1]; Tables 1-2, 250 mg/kg, eight hours after initial dosing, value = size of rise): 4.5 mg/dL
- mean glucose levels declined from the baseline value ([1]; Tables 1-2, 250 mg/kg, six hours after initial dosing): 8.4 mg/dL
- mean glucose levels rose from the baseline value ([1]; Tables 1-2, 250 mg/kg, thirty hours after dosing, value = size of rise): 36.5 mg/dL
- mean glucose levels declined from the baseline values ([1]; Tables 1-2, 250 mg/kg, twenty-four hours after initial dosing): 122.8 mg/dL
- mean glucose levels declined from the baseline value ([1]; Tables 4 and 6, 125 mg/kg, six hours after initial dosing): 34.3 mg/dL
- reduction in plasma glucose relative to vehicle (control) (in words) ([1]; dose level of 250 mg/kg, Tables 1 and 2): statistically significant reduction
- reduction in plasma glucose relative to vehicle (control) (in words) ([1]; dose levels of 62.5, 125, and 250 mg/kg, Tables 4 and 6): statistically significant reduction
- adverse effect on food intake or body weight (in words) ([2]; 62.5 mg/kg, 125 mg/kg, and 250 mg/kg, Tables 5 and 7): absence of any significantly adverse effect
- Food Intake (g/mouse) 0-48 h ([2]; 62.5 mg/kg, vehicle 6.3, Tables 5 and 7): 5.9 g/mouse
- Body weight (g/mouse) (mean) 0 h ([2]; 62.5 mg/kg, vehicle 39.2 ± 0.5, Tables 5 and 7): 37.4 ± 0.4 g/mouse
- Body weight (g/mouse) (mean) 48 hr ([2]; 62.5 mg/kg, vehicle 39.5 ± 0.5, Tables 5 and 7): 38.2 ± 0.5 g/mouse
- Food Intake (g/mouse) 0-48 h ([2]; 125 mg/kg, vehicle 6.3, Tables 5 and 7): 5.6 g/mouse
- Body weight (g/mouse) (mean) 0 h ([2]; 125 mg/kg, vehicle 39.2 ± 0.5, Tables 5 and 7): 39.4 ± 0.4 g/mouse
- Body weight (g/mouse) (mean) 48 hr ([2]; 125 mg/kg, vehicle 39.5 ± 0.5, Tables 5 and 7): 39.7 ± 0.3 g/mouse
- food intake compared with the normal food intake range (5-6 g/day/mouse) (in words) ([2]; 250 mg/kg): less than that of the normal food intake range
- Food Intake (g/mouse) 0-24 h ([2]; 250 mg/kg, Table 3): 3.3 g/mouse
- Food Intake (g/mouse) 0-48 h ([2]; 250 mg/kg, vehicle 6.3, Tables 5 and 7): 4.3 g/mouse
- Body weight (g/mouse) (mean) 0 h [2, 5]: 38.7 ± 0.8 g/mouse
- Body weight (g/mouse) (mean) 0 h ([2]; 250 mg/kg, vehicle 39.2 ± 0.5, Tables 5 and 7): 39.1 ± 0.8 g/mouse
- Body weight (g/mouse) (mean) 24 hr ([2]; 250 mg/kg, Table 3): 38.0 ± 0.7 g/mouse
- Body weight (g/mouse) (mean) 48 hr ([2]; 250 mg/kg, vehicle 39.5 ± 0.5, Tables 5 and 7): 38.4 ± 0.1 g/mouse
- adverse effect on food intake or body weight (in words) ([2]; 250 mg/kg, Table 3): absence of any significantly adverse effect

Molecule: COc1cc(/C=C/c2ccccc2)cc(O)c1CC=C(C)C [Compound D, 3-hydroxy-5-methoxy-4-(3-methyl-2-butenyl)stilbene]
- Food Intake (g/mouse) 0-48 h [2, 13]: 5.7 g/mouse
- Body weight (g/mouse) (mean) 0 h [2, 14]: 39.3 ± 0.6 g/mouse
- Body weight (g/mouse) (mean) 48 hr [2, 15]: 39.7 ± 0.7 g/mouse

Molecule: COc1cc(O)cc(CCc2ccccc2)c1CC=C(C)C [Compound E]
- Change in Glucose (mg/dL) 6 H ([1]; 125 mg/kg q.d. oral at 0, 24, 48 h, vehicle 15.5, Table 8): -2.1 mg/dL
- Change in Glucose (mg/dL) 6 H [1, 6]: -53.8 mg/dL
- Change in Glucose (mg/dL) 30 H [1, 7]: -109.9 mg/dL
- Change in Glucose (mg/dL) 30 H ([1]; 125 mg/kg q.d. oral at 0, 24, 48 h, 30 h after initial dose, vehicle 56.6, Table 8): -47.0 mg/dL
- Change in Glucose (mg/dL) 54 H ([1]; 125 mg/kg q.d. oral at 0, 24, 48 h, vehicle 88.6, Table 8): -54.7 mg/dL
- Change in Glucose (mg/dL) 54 H [1, 8]: -86.6 mg/dL
- mean glucose levels declined from baseline values ([1]; Table 8, 125 mg/kg, fifty-four hours after initial dosing): 54.7 mg/dL
- mean glucose levels declined from the baseline value ([1]; Table 8, printed dose 250 mg/kg, thirty hours after initial dosing): 47.0 mg/dL
- mean glucose levels declined from baseline values [1, 9]: 86.6 mg/dL
- mean glucose levels declined from the baseline value [1, 10]: 53.8 mg/dL
- mean glucose levels declined from the baseline value [1, 11]: 109.9 mg/dL
- reduction in plasma glucose relative to vehicle (control) (in words) [1, 12]: statistically significant reduction
- Food Intake (g/mouse) 0-48 h ([2]; 125 mg/kg, vehicle 6.0, Table 9): 5.7 g/mouse
- Food Intake (g/mouse) 0-48 h [2, 13]: 5.7 g/mouse
- Body weight (g/mouse) (mean) 0 h [2, 14]: 39.6 ± 0.3 g/mouse
- Body weight (g/mouse) (mean) 0 h ([2]; 125 mg/kg, vehicle 39.8 ± 0.7, Table 9): 39.5 ± 0.5 g/mouse
- Body weight (g/mouse) (mean) 48 hr ([2]; 125 mg/kg, vehicle 39.7 ± 0.6, Table 9): 39.7 ± 0.6 g/mouse
- Body weight (g/mouse) (mean) 48 hr [2, 15]: 40.2 ± 0.4 g/mouse
- adverse effect on food intake or body weight (in words) ([2]; 125 mg/kg, Tables 9 and 11): absence of any significantly adverse effect

Molecule: COc1cc(O)cc(CCc2ccccc2)c1CCC(C)C [Compound F]
- Food Intake (g/mouse) 0-48 h [2, 13]: 5.8 g/mouse
- Body weight (g/mouse) (mean) 0 h [2, 14]: 39.3 ± 0.8 g/mouse
- Body weight (g/mouse) (mean) 48 hr [2, 15]: 39.8 ± 0.8 g/mouse
